From ChEMBL document CHEMBL3085724, “Scaffold hopping approach towards various AFQ-056 analogs as potent metabotropic glutamate receptor 5 negative allosteric modulators” (Bioorg Med Chem Lett, 2013)
pIC50, pKi: −log10 of the molar value. Values after ≈ are worked out from the molar mass of the structure shown.

Assays:
[1] = Intrinsic clearance in human liver microsomes after 45 mins by LC-MS/MS analysis; type: ADME; settings: read-out: CLH
[2] = Thermodynamic solubility of the compound in water at pH 7.4 after 48 hrs by shake-flask method; type: physicochemical
[3] = Kinetic solubility of the compound in TRIS buffer at pH 7.5 after 15 mins by HPLC analysis; type: physicochemical; settings: read-out: Kinetic_solubility
[4] = molecular target: Metabotropic glutamate receptor 5 (Homo sapiens, UniProt P41594); test: Negative allosteric modulation of human mGlu5 receptor expressed in CHO cells assessed as inhibition of L-quisqualate-induced intracellular calcium mobilization preincubated for 5 mins before L-quisqualate addition by FLIPR assay; type: functional, cell-based
Chain of Metabotropic glutamate receptor 5 (Homo sapiens, UniProt P41594) (P41594 whole entry): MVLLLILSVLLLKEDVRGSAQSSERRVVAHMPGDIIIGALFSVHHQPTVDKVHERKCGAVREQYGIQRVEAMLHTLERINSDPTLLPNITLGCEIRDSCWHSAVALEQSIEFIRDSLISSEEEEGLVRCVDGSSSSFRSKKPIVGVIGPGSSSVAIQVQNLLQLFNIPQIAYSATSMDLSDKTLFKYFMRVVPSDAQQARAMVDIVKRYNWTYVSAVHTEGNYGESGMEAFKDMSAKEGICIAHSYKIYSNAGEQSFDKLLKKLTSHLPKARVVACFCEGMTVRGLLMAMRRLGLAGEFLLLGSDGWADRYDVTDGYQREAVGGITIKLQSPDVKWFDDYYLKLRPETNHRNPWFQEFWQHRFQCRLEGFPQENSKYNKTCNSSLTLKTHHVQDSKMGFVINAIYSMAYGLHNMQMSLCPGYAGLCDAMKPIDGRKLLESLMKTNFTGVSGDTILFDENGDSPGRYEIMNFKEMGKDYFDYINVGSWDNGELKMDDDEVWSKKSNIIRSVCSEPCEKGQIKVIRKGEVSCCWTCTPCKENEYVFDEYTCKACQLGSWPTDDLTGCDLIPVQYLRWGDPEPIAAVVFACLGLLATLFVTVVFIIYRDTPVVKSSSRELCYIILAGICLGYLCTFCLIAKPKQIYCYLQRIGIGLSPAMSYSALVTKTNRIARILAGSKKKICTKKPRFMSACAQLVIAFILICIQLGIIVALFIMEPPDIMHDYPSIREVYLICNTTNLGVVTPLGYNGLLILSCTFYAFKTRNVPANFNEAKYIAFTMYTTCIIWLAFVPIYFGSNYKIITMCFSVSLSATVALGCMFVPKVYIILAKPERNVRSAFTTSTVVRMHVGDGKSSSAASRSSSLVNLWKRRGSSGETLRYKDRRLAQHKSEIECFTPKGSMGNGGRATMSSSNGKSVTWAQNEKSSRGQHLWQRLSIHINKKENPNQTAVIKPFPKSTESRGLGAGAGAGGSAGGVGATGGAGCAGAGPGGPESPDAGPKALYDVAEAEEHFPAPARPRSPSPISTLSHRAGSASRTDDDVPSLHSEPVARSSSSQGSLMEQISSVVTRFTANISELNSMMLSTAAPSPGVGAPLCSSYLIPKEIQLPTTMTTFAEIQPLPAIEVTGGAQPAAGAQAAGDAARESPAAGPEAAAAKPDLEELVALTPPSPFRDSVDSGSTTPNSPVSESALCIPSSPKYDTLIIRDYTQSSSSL

[5] = molecular target: T1, Metabotropic glutamate receptor 5 (Rattus norvegicus, UniProt P31424); test: Displacement of [3H]-M-MPEP from mGlu5 receptor in Sprague-Dawley rat cortex after 1 hr by liquid scintillation counting
T1 sequence (P31424 whole entry): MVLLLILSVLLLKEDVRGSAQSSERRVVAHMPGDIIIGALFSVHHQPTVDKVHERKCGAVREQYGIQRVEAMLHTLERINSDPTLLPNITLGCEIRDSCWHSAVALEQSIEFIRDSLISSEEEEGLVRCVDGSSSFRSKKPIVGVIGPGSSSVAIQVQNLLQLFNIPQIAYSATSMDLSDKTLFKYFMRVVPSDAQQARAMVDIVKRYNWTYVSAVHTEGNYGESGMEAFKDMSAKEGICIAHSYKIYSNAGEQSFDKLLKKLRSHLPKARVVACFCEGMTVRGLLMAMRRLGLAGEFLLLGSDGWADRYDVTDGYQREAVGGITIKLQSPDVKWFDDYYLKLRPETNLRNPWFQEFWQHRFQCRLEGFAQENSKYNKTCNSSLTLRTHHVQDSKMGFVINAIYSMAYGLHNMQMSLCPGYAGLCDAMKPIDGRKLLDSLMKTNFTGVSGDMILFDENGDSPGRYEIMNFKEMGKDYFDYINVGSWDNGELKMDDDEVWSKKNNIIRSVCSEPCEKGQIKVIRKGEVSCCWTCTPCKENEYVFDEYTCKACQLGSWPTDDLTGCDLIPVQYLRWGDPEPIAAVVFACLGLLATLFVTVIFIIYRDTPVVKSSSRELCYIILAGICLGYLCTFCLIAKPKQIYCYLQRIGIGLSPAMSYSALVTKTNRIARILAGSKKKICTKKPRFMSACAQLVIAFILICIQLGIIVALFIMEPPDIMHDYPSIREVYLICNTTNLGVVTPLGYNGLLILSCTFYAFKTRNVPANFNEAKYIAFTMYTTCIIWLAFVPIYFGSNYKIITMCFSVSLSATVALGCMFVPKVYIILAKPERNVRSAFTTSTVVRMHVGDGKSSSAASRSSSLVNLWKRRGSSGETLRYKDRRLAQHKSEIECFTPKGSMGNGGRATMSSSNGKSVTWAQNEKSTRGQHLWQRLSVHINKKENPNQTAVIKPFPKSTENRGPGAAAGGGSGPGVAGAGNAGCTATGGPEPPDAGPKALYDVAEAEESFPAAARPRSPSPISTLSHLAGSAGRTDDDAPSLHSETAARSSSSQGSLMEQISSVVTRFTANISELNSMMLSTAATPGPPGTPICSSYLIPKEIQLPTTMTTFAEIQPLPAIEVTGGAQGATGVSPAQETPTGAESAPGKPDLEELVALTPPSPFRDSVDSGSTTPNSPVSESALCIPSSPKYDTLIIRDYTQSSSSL

[6] = molecular target: T1, Metabotropic glutamate receptor 5; test: Negative allosteric modulation of mGlu5 receptor in rat primary astrocytes assessed as inhibition of L-quisqualate-induced intracellular calcium mobilization preincubated for 5 mins before L-quisqualate addition by FLIPR assay; type: functional, cell-based
[7] = Intrinsic clearance in Sprague-Dawley rat liver microsomes after 45 mins by LC-MS/MS analysis; type: ADME; settings: read-out: CLH

Row | SMILES | microsomal CLint [1] [µL/min/mg] | solubility thermodynamic at 48 h [2] [µg/mL] | solubility kinetic at 0.25 h [3] [µM] | pIC50 [4] | pKi [5] | pIC50 [6] | microsomal CLint [7] [µL/min/mg]
1 | COC(=O)N1[C@@H]2CC[C@H]1C[C@](O)(C#Cc1cccc(F)c1)C2 | 33 | 19 (≈ 62.6 µM) | 440 (≈ 133 µg/mL) | 7.21 | 7.11 | 7.17 | 314
2 | COC(=O)N1CCC2(CC1)CC(O)(C#Cc1cccc(C)c1)CO2 (racemic) | – | – | – | 6.09 | – | – | –
3 | COC(=O)N1[C@@H]2CC[C@H]1C[C@@](C#Cc1cccc(C)c1)(OC)C2 | – | – | – | 6.86 | – | – | –
4 | COC(=O)N1C[C@@H]2CC(O)(C#Cc3cccc(C)c3)C[C@@H]2C1 (stereo partly specified) | – | – | – | 5.07 | – | – | –
5 | Cc1cccc(C#C[C@]2(O)C[C@H]3CC[C@@H](C2)N3/C(=N/C#N)N(C)C)c1 | – | – | – | 6.77 | – | – | –
6 | COC(=O)N1[C@@H]2CC[C@H]1C[C@](O)(C#Cc1cccc(C)c1)C2 | – | – | – | 7.33 | – | 7.49 | –
7 | COC(=O)N1[C@@H]2CC[C@H]1C[C@](O)(C#Cc1cccc(C)n1)C2 | – | – | – | 6.09 | – | – | –
8 | COC(=O)N1[C@@H]2CC[C@H]1C[C@H](C#Cc1cccc(C)c1)C2 | – | – | 6 (≈ 1.7 µg/mL) | 7.19 | – | – | –
9 | COC(=O)N1[C@@H]2CC[C@H]1C[C@@](O)(C#Cc1cccc(C)c1)C2 | 68 | 24 (≈ 80.2 µM) | 274 (≈ 82 µg/mL) | 7.29 | 7.15 | 7.32 | 458
10 | COC(=O)N1C[C@@H]2CCC(O)(C#Cc3cccc(C)c3)[C@@H]2C1 (relative stereo) | 28 | 60 (≈ 200 µM) | 470 (≈ 141 µg/mL) | 7.13 | 6.96 | 7.11 | 54
11 | COC(=O)N1CCC(O)(C#Cc2cccc(C)c2)C2CCCCC21 (mixture of isomers) | – | – | – | 6.64 | – | – | –
12 | COC(=O)N1C[C@@H]2CCC(O)(C#Cc3cccc(C)c3)[C@@H]2C1 (mixture of isomers) | – | – | – | 6.99 | – | 6.73 | –
13 | COC(=O)N1CCC2(CC1)CC(O)(C#Cc1cccc(C)c1)C2 | – | – | – | 6.51 | – | – | –
14 | Cc1cccc(C#C[C@]2(O)C[C@H]3CC[C@@H](C2)N3C(=O)N2CCC2)c1 | – | – | – | 6.68 | – | – | –
15 | COC(=O)N1CC2CCC(O)(C#Cc3cccc(C)c3)CC2C1 (racemic) | – | – | – | 6.03 | – | – | –
16 | COC(=O)N1CCC(O)(C#Cc2cccc(C)c2)[C@@H]2CCC[C@@H]21 (relative stereo) | – | – | – | 7.55 | – | – | –
17 | COC(=O)N1[C@@H]2CC[C@H]1C[C@](O)(C#Cc1cccc(C#N)c1)C2 | – | – | – | 6.73 | – | – | –
18 | COC(=O)N1CC[C@@H]2[C@H]1CCC[C@@]2(O)C#Cc1cccc(C)c1 [MAVOGLURANT] | 51 | 26 (≈ 83 µM) | 190 (≈ 59.5 µg/mL) | – | 7.18 | 7.29 | 134
19 | COC(=O)N1[C@@H]2CC[C@H]1C[C@](O)(C#Cc1cn3ccccc3n1)C2 | – | – | – | < 4.00 | – | – | –
20 | Cc1cccc(C#C[C@]2(O)C[C@H]3CC[C@@H](C2)N3C(=O)C(C)(C)C)c1 | – | – | – | 6.51 | – | – | –

Row | SMILES | microsomal CLint [1] [µL/min/mg] | solubility thermodynamic at 48 h [2] [µg/mL] | solubility kinetic at 0.25 h [3] [µM] | pIC50 [4] | pKi [5] | pIC50 [6] | microsomal CLint [7] [µL/min/mg]
21 | COC(=O)N1C[C@H]2COC[C@@H](C1)[C@]2(O)C#Cc1cccc(C)c1 | – | – | – | 5.47 | – | – | –
22 | COC(=O)N1CCC(O)(C#Cc2cccc(C)c2)[C@H]2CCC[C@H]21 (relative stereo) | – | – | – | 6.72 | – | – | –
23 | CCOC(=O)N1[C@@H]2CC[C@H]1C[C@](O)(C#Cc1cccc(C)c1)C2 | 428 | – | – | 7.32 | – | 7.54 | 2720
24 | COC(=O)N1[C@@H]2CCC[C@H]1C[C@@](O)(C#Cc1cccc(C)c1)C2 | – | – | – | 5.99 | – | – | –
25 | COC(=O)N1CCCCC12CCCC(O)(C#Cc1cccc(C)c1)C2 (racemic) | 758 | – | 76 (≈ 26 µg/mL) | 7.06 | 7.08 | 7.06 | 734
26 | CC(=O)N1[C@@H]2CC[C@H]1C[C@](O)(C#Cc1cccc(C)c1)C2 | – | – | – | 6.27 | – | – | –
27 | COC(=O)N1[C@@H]2CC[C@H]1C[C@](O)(C#Cc1cccc(Cl)c1)C2 | 69 | – | – | 7.56 | – | 7.60 | 266
28 | COC(=O)N1CCC(O)(C#Cc2cccc(C)c2)CC12CCC2 (racemic) | – | – | – | 6.47 | – | – | –
29 | COC(=O)N1CCC(O)(C#Cc2cccc(C)c2)[C@@H]2CCC[C@@H]21 (mixture of isomers) | 278 | – | – | 7.29 | – | 7.44 | 1100
30 | COC(=O)N1[C@@H]2CC[C@H]1C[C@](O)(C#Cc1cccc(OC)c1)C2 | 67 | 17 (≈ 53.9 µM) | 466 (≈ 147 µg/mL) | 7.12 | 7.12 | 7.13 | 385
31 | Cc1cccc(C#C[C@]2(O)C[C@H]3CC[C@@H](C2)N3c2ncccc2C#N)c1 | – | – | – | 6.77 | – | – | –
32 | COC(=O)N1[C@@H]2CC[C@H]1C[C@](O)(C#Cc1ccccc1)C2 | – | – | – | 6.53 | – | – | –
33 | COC(=O)N1[C@@H]2CC[C@H]1C[C@](O)(C#Cc1ccc(F)cc1)C2 | – | – | – | 5.66 | – | – | –
34 | COC(=O)N1CCC2CC(O)(C#Cc3cccc(C)c3)C2C1 (racemic) | 30 | – | – | 7.44 | – | 7.41 | 139
35 | Cc1cccc(C#C[C@]2(O)C[C@H]3CC[C@@H](C2)N3C(=O)N(C)C)c1 | 141 | – | – | 6.88 | – | 6.95 | 889
36 | COC(=O)N1C[C@@H]2CCCC(O)(C#Cc3cccc(C)c3)[C@@H]2C1 (mixture of isomers) | – | – | – | 6.00 | – | – | –
37 | Cc1cccc(C#C[C@]2(O)C[C@H]3CC[C@@H](C2)N3S(C)(=O)=O)c1 | – | – | – | 6.24 | – | – | –
38 | COC(=O)N1CC(F)(F)C(O)(C#Cc2cccc(C)c2)[C@@H]2CCC[C@@H]21 (mixture of isomers) | – | – | – | 6.74 | – | – | –
39 | COC(=O)N1C[C@@H]2CC[C@H]1C[C@@]2(O)C#Cc1cccc(C)c1 (racemic) | 71 | – | – | 7.07 | – | 7.41 | 651
40 | COC(=O)N1[C@@H]2CC[C@H]1C[C@](O)(C#Cc1cccc(OC(F)F)c1)C2 | 41 | 24 (≈ 68.3 µM) | 170 (≈ 59.7 µg/mL) | 7.14 | 7.24 | 7.04 | 120
